Source: patent US7964627B2, “Amino arylsulfonamide compounds and their use as 5-HT6 ligands” (Suven Life Sciences Limited, priority 2007, dated 2011)
Each block holds one molecule with its values, some of them ahead of it.

How the values were obtained:
[1] = biological target: T1, Human 5-HT6 receptor (Homo sapiens, UniProt P50406); test: Binding assay for human 5-HT6 receptor ([3H]LSD radioligand); details: human recombinant receptor in HEK293 cells; for inhibition at 0.1 µM: 100 nM test compound, [3H]LSD 1.5 nM, read-out: % Inhibition of specific binding at 100 nM; for Ki: [3H]LSD
T1 construct: expressed in transfected cells; host or cells: HEK293 cells
Method: Compounds can be tested according to the following the procedures.
Receptor source: Human recombinant expressed in HEK293 cells
Radioligand: [^3H]LSD (60-80 Ci/mmol)
Final ligand concentration—[1.5 nM]
Non-specific determinant: Methiothepin mesylate—[0.1 μM]
Reference compound: Methiothepin mesylate
Positive control: Methiothepin mesylate
Reactions were carried out in […] TRIS-HCl (pH 7.4) containing 10 μM MgCl2, 0.5 mM EDTA for 60 minutes at 37° C. The reaction was terminated by rapid vacuum filtration onto glass fiber filters. Radioactivity trapped onto the filters was determined and compared to control values in order to ascertain any interactions of test compound(s) with the cloned serotonin 5-HT6 binding site.
Percent Inhibition of Specific Binding at 100 nM Concentrations
Literature Reference: Monsma F. J. Jr., et al., Molecular Cloning and Expression of Novel Serotonin Receptor with High Affinity for Tricyclic Psychotropic Drugs. Mol. Pharmacol. (43): 320-327 (1993).

[2] = system: animal models for schizophrenia; details: Pouzet et al. 2002; cited from earlier work
[3] = system: 5-HT6 receptor; details: literature; cited from earlier work
[4] = Rodent pharmacokinetic study; format: in vivo, Male wistar rats; details: plasma, Wistar/Male rat, 10 mg/kg; for AUC(0-t) / Cmax / Tmax / half-life: vehicle water; for bioavailability: Oral vs Intravenous
Method: Male wistar rats (230-280 grams) obtained from NIN (National Institute of Nutrition, Hyderabad, India) were used as an experimental animal.
Three to five animals were housed in each cage. Animals were kept fasted over night and maintained on a 12 hours light/dark cycle. Three rats were dosed NCE (10 mg/Kg) orally and intravenously on day 0 and day 2.
At each time point blood was collected by jugular vein. Plasma was stored frozen at −20° C. until analysis. The concentrations of the NCE compound in plasma were determined using LC-MS/MS method.
Schedule time points: Pre dose 0.25, 0.5, 1, 1.5, 2, 3, 4, 6, 8, 10, 12 and 24 hours after dosing (n=3). The NCE compounds were quantified in plasma by validated LC-MS/MS method using solid phase extraction technique. NCE compounds were quantified in the calibration range of 2-2000 ng/ml in plasma. Study samples were analyzed using calibration samples in the batch and quality control samples spread across the batch.
Pharmacokinetic parameters Cmax, Tmax, AUCt, AUCinf, half life, volume of distribution, clearance, mean residence time and thereby oral bioavailability were calculated by non-compartmental model using software WinNonlin version 5.1.

[5] = Rodent brain penetration study (steady state); format: in vivo, Male Wister rats; details: Wistar, brain and plasma; Wister/Male rat, 10 mg/kg, Oral, vehicle water; read-out: Steady State Brain Penetration Cb/Cp
[6] = system: Male Wister rats; test: Object recognition task model (NORT); format: in vivo; details: p.o.; for NORT Discriminative Index (DI), treatment: vehicle value in brackets in the cell; for NORT Inference: 10 and 30 mg/kg
Method: The cognition-enhancing properties of compounds of this invention were estimated using a model of animal cognition: the object recognition task model. Male Wister rats (230-280 grams) obtained from N.I.N. (National Institute of Nutrition, Hyderabad, India) were used as experimental animals. Four animals were housed in each cage. Animals were kept on 20% food deprivation before one day and given water ad libitum throughout the experiment and maintained on a 12 hours light/dark cycle. Also the rats were habituated to individual arenas for 1 hour in the absence of any objects.
One group of 12 rats received vehicle (1 mL/Kg) orally and another set of animals received compound of the formula (I) either orally or i.p., before one hour of the familiar (T1) and choice trial (T2).
The experiment was carried out in a 50×50×50 cm open field made up of acrylic. In the familiarization phase, (T1), the rats were placed individually in the open field for 3 minutes, in which two identical objects (plastic bottles, 12.5 cm height×5.5 cm diameter) covered in yellow masking tape alone (a1 and a2) were positioned in two adjacent corners, 10 cm. from the walls. After 24 hours of the (T1) trial for long-term memory test, the same rats were placed in the same arena as they were placed in T1 trial. Choice phase (T2) rats were allowed to explore the open field for 3 minutes in presence of one familiar object (a3) and one novel object (b) (Amber color glass bottle, 12 cm high and 5 cm in diameter). Familiar objects presented similar textures, colors and sizes. During the T1 and T2 trial, explorations of each object (defined as sniffing, licking, chewing or having moving vibrissae whilst directing the nose towards the object at a distance of less than 1 cm) were recorded separately by stopwatch. Sitting on an object was not regarded as exploratory activity, however, it was rarely observed. T1 is the total time spent exploring the familiar objects (a1+a2). T2 is the total time spent exploring the familiar object and novel object (a3+b).
The object recognition test was performed as described by Ennaceur, A., Delacour, J., 1988, A new one-trial test for neurobiological studies of memory in rats-Behavioral data, Behav. Brain Res., 31, 47-59.

[7] = system: rats; test: Water maze, scopolamine induced reversal; format: in vivo; details: p.o.
Method: The water maze apparatus consisted of a circular pool (1.8 m diameter, 0.6 m high) constructed in black Perspex (TSE systems, Germany) filled with water (24±2° C.) and positioned underneath a wide-angled video camera to track animal. The 10 cm^2 perspex platform, lying 1 cm below the water surface, was placed in the centre of one of the four imaginary quadrants, which remained constant for all rats. The black Perspex used in the construction of the maze and platform offered no intramaze cues to guide escape behavior. By contrast, the training room offered several strong extramaze visual cues to aid the formation of the spatial map necessary for escape learning. An automated tracking system, [Videomot 2 (5.51), TSE systems, Germany] was employed. This program analyzes video images acquired via a digital camera and an image acquisition board that determined path length, swim speed and the number of entries and duration of swim time spent in each quadrant of the water maze.

T1 sequence (P50406 whole entry): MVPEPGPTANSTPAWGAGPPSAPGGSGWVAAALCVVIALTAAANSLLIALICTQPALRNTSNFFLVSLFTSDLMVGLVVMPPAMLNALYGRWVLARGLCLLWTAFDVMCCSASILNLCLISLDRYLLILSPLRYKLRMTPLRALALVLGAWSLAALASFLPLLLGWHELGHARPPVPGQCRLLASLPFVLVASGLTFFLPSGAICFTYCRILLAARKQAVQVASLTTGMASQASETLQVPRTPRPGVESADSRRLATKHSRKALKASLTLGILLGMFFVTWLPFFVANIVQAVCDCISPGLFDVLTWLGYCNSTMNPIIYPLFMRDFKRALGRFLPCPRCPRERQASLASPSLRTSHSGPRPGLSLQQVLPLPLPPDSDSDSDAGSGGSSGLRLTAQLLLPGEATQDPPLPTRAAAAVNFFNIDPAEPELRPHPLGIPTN

SMILES: COc1ccc(NS(=O)(=O)c2sc3ccc(Cl)cc3c2C)cc1N1CCNCC1 [SB-271046, 5-Chloro-N-(4-methoxy-3-piperazin-1-ylphenyl)-3-methyl-2-benzothiophenesulfonamide]
Activity in animal tests related to positive or negative symptoms of schizophrenia [2]: inactive

SMILES: CN1CCN2c3ccccc3Cc3ccccc3C2C1 (centres unmarked) [mianserin]
Affinity for the 5-HT6 receptor [3]: high affinity

SMILES: COc1ccc2c(c1)c(Cl)cn2S(=O)(=O)c1ccc(OC)c(NCCN(C)C)c1 [Example 2, N′-[5-(3-Chloro-5-methoxyindole-1-sulfonyl)-2-methoxyphenyl]-N,N-dimethyl ethane-1,2-diamine]
inhibition at 0.1 µM [1]: 84.9%

SMILES: CCc1ccc(S(=O)(=O)n2cc(C)c3cc(OC)ccc32)cc1NCCN(C)C [Example 15, N′-[2-Ethyl-5-(5-methoxy-3-methylindole-1-sulfonyl)phenyl]-N,N-dimethyl ethane-1,2-diamine]
inhibition at 0.1 µM [1]: 56.4%

SMILES: CN(C)CCC=C1c2ccccc2CCc2ccccc21 [amitriptyline]
Affinity for the 5-HT6 receptor [3]: high affinity

SMILES: COc1ccc(S(=O)(=O)n2cc(C)c3cc(F)ccc32)cc1NCCCN(C)C [Example 33, N′-[2-Methoxy-5-(5-fluoro-3-methylindole-1-sulfonyl)phenyl]-N,N-dimethyl propane-1,3-diamine]
Ki [1]: 7.34 nM

SMILES: COc1ccc2c(c1)c(C)cn2S(=O)(=O)c1ccc(OC)c(NCCCN(C)C)c1 [Example 35, N′-[2-Methoxy-5-(5-methoxy-3-methylindole-1-sulfonyl)phenyl]-N,N-dimethyl propane-1,3-diamine]
Ki [1]: 18.9 nM

SMILES: COc1ccc(S(=O)(=O)n2cc(C)c3ccccc32)cc1NCCCN(C)C [Example 31, N′-[2-Methoxy-5-(3-methylindole-1-sulfonyl)phenyl]-N,N-dimethyl propane-1,3-diamine]
AUC(0-t) ([4]; Intravenous): 3480 ± 650 ng·h/mL | Cmax ([4]; Intravenous): 1730 ± 682 ng/mL | Tmax ([4]; Intravenous): 0.08 h | half-life ([4]; Intravenous): 2.72 ± 0.4 h | bioavailability [4]: 19 ± 7% | AUC(0-t) ([4]; Oral): 674 ± 320 ng·h/mL | Cmax ([4]; Oral): 140 ± 76.8 ng/mL | Tmax ([4]; Oral): 2.33 ± 1.53 h | half-life ([4]; Oral): 5.06 ± 3.28 h | Ki [1]: 2.92 nM | NORT Discriminative Index (DI), treatment ([6]; 10 mg/kg): 0.54 (0.48) | NORT Discriminative Index (DI), treatment ([6]; 30 mg/kg): 0.52 (0.52) | NORT Inference [6]: Active | Kp [5]: 3.48 ± 0.27 | Scopolamine Induced Reversal (active dose) [7]: ≧30 mg/kg, p.o.

Continued, in another order:

inhibition at 0.1 µM [1]: 100%
SMILES: Cc1ccc(S(=O)(=O)n2ccc3ccc(Cl)cc32)cc1NCCN(C)C [Example 20, N′-[5-(6-Chloroindole-1-sulfonyl)-2-methylphenyl]-N,N-dimethyl ethane-1,2-diamine]

inhibition at 0.1 µM [1]: 70.7%
SMILES: CCc1ccc(S(=O)(=O)n2ccc3cc(F)ccc32)cc1NCCN(C)C [Example 13, N′-[2-Ethyl-5-(5-fluoroindole-1-sulfonyl)phenyl]-N,N-dimethyl ethane-1,2-diamine]

AUC(0-t) ([4]; Intravenous): 1870 ± 338 ng·h/mL | Cmax ([4]; Intravenous): 1590 ± 538 ng/mL | Tmax ([4]; Intravenous): 0.08 h | half-life ([4]; Intravenous): 2.93 ± 1.29 h | bioavailability [4]: 5 ± 2% | AUC(0-t) ([4]; Oral): 88 ± 48 ng·h/mL | Cmax ([4]; Oral): 41 ± 19 ng/mL | Tmax ([4]; Oral): 0.58 ± 0.38 h | half-life ([4]; Oral): 1.95 ± 0.73 h | inhibition at 0.1 µM [1]: 90.5% | Ki [1]: 1.22 nM | Kp [5]: 20.2 ± 1.84
SMILES: COc1ccc(S(=O)(=O)n2ccc3ccccc32)cc1NCCN(C)C [Example 4, N′-[5-(Indole-1-sulfonyl)-2-methoxyphenyl]-N,N-dimethyl ethane-1,2-diamine]

inhibition at 0.1 µM [1]: 95.6% | Ki [1]: 3.02 nM
SMILES: COc1ccc(S(=O)(=O)n2cc(Cl)c3ccccc32)cc1NCCN(C)C [Example 3, N′-[5-(3-Chloroindole-1-sulfonyl)-2-methoxyphenyl]-N,N-dimethyl ethane-1,2-diamine]

inhibition at 0.1 µM [1]: 76%
SMILES: CCc1ccc(S(=O)(=O)n2ccc3cc(OC)ccc32)cc1NCCN(C)C [Example 26, N′-[2-Ethyl-5-(5-methoxyindole-1-sulfonyl)phenyl]-N,N-dimethyl ethane-1,2-diamine]

Ki [1]: 17.3 nM
SMILES: COc1ccc2c(c1)c(C)cn2S(=O)(=O)c1ccc(C)c(NCCN(C)C)c1 [Example 8, N′-[5-(5-Methoxy-3-methylindole-1-sulfonyl)-2-methylphenyl]-N,N-dimethyl ethane-1,2-diamine]

inhibition at 0.1 µM [1]: 96%
SMILES: CN(C)CCNc1cccc(S(=O)(=O)n2ccc3ccc(Cl)cc32)c1 [Example 23, N′-[3-(6-Chloroindole-1-sulfonyl)phenyl]-N,N-dimethyl ethane-1,2-diamine]

AUC(0-t) ([4]; Intravenous): 2860 ± 442 ng·h/mL | Cmax ([4]; Intravenous): 1960 ± 458 ng/mL | Tmax ([4]; Intravenous): 0.08 h | half-life ([4]; Intravenous): 3.37 ± 0.29 h | bioavailability [4]: 6 ± 1% | AUC(0-t) ([4]; Oral): 158 ± 20 ng·h/mL | Cmax ([4]; Oral): 36 ± 8 ng/mL | Tmax ([4]; Oral): 1.33 ± 0.58 h | half-life ([4]; Oral): 2.27 ± 0.2 h | inhibition at 0.1 µM [1]: 93% | Ki [1]: 1.52 nM | Kp [5]: 13.5 ± 4.28
SMILES: COc1ccc(S(=O)(=O)n2cc(C)c3ccccc32)cc1NCCN(C)C [Example 5, N′-[2-Methoxy-5-(3-methylindole-1-sulfonyl)phenyl]-N,N-dimethyl ethane-1,2-diamine]
NORT Discriminative Index (DI), treatment ([6]; 10 mg/kg): 0.46 (0.52) | NORT Discriminative Index (DI), treatment ([6]; 30 mg/kg): 0.58 (0.56) | NORT Inference [6]: Active | Scopolamine Induced Reversal (active dose) [7]: ≧3 mg/kg, p.o.

Ki [1]: 41 nM
SMILES: COc1ccc2c(ccn2S(=O)(=O)c2ccc(C)c(NCCCN(C)C)c2)c1 [Example 9, N′-[5-(5-Methoxyindole-1-sulfonyl)-2-methylphenyl]-N,N-dimethyl propane-1,3-diamine]

inhibition at 0.1 µM [1]: 82.9%
SMILES: COc1ccc2c(c1)c(C)cn2S(=O)(=O)c1ccc(OC)c(NCCN(C)C)c1 [Example 1, N′-[2-Methoxy-5-(5-methoxy-3-methylindole-1-sulfonyl)phenyl]-N,N-dimethyl ethane-1,2-diamine]
